In US10787436B2, “Inhibitors of cyclin-dependent kinase 7 (CDK7)” (Dana-Farber Cancer Institute, Inc., priority 2012, dated 2020):

Columns and labels:
CDK5/p25 = CDK5/p25 (Homo sapiens (Human), UniProt Q00535); test: Life Technologies Z'-Lyte kinase assay, CDK5/p25; format: biochemical; details: read-out: Calculated IC50, CDK5/p25
SKBR3 = test: Proliferation assay, CellTiter-Glo, 72 hour; format: cell-based; details: breast cancer cell line, read-out: Inhibition of proliferation, SKBR3
SK-ES = test: Proliferation assay, CellTiter-Glo, 72 hour; format: cell-based; details: Ewing's sarcoma cell line, read-out: Inhibition of proliferation, SK-ES
BCL-XL = test: Immunoblot of BCL-2 family proteins in Loucy cells; format: cell-based; details: 12 to 48 hours
Experimental: (§1) At indicated time points, cellular lysates were harvested at the indicated times points and immunoblotted for the indicated proteins. […] Anti-proliferative effects were determined using cell titer glo analysis. […] Anti-proliferative effects were determined using alamarBlue® analysis. […] Anti-proliferative effects were determined using cell titer glo analysis. […] Dose: i.v. 1 mg/kg and p.o. 10 mg/kg.
(§2) Consistent with its covalent inhibitory mechanism, similar results were seen over the same time span following washout (FIGS. 6A to 6B).

MCL-1 protein = test: Immunoblot of BCL-2 family proteins in Loucy cells; format: cell-based; details: after 12 hours
Experimental: as §1, §2

Sequence of CDK5/p25 (Q00535 whole entry): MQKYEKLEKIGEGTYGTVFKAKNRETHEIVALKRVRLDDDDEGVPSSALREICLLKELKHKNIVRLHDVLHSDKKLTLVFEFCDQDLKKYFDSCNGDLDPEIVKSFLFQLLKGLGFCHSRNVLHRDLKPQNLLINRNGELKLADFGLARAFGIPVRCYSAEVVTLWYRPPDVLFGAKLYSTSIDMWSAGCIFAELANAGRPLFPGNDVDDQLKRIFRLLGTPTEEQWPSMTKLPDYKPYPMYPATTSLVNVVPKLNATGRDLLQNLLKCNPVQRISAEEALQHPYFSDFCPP
Sequence of CDK5/p25 (Q15078 99-307 partner): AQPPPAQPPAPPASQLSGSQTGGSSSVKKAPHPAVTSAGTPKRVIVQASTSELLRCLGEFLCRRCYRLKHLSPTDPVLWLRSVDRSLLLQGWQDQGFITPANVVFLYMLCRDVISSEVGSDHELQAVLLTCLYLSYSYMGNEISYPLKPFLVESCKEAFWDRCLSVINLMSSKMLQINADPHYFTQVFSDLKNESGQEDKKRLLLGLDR

CN(C)C/C=C/C(=O)Nc1ccc(C(=O)Nc2cccc(Nc3ncc(Cl)c(-c4c[nH]c5ccccc45)n3)c2)cc1 [Formula I-23]
IC50 (CDK5/p25): 100 to 1000 nM
IC50 (SKBR3): 500 to 5000 nM
IC50 (SK-ES): < 500 nM
Reduction of BCL-XL protein levels (BCL-XL): not reduced even at higher concentrations
Concentration sufficient to elicit a reduction in MCL-1 protein levels (MCL-1 protein): ≤ 100 nM
